# Measured values from patent US20240041042A1, “1-(PYRIDYL)-5-AZINYLPYRAZOLE DERIVATIVES, AND THEIR USE FOR CONTROL OF UNDESIRED PLANT GROWTH” (Bayer Aktiengesellschaft, priority 2020, published 2024).
# Where two headings read alike, the source gives them in different places.
# Assays:
# Assay type in all cases: in vivo
# Setaria viridis (SETVI) [1] = assay: Pre-emergence herbicidal action against SETVI; details: dosage 320 g/ha
# Method in brief: (§1)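 Herbicide applied to soil before seedling emergence, at 600 l/ha spray volume with 0.5% additive and rates up to 320 g/ha. Evaluation: visual percentage effect, about 3 weeks later, greenhouse-grown pots compared with untreated ones.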
# [2] = tested on: Amaranthus retroflexus (AMARE); assay: Post-emergence herbicidal action against AMARE
# Method in brief: (§2)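 Doses of 320 g/ha or lower, suffixes a, b and c marking different dosages, were applied post-emergence at the one-leaf stage in 600 l/ha water with 0.5% additive. Damage was assessed visually after about 3 weeks in the greenhouse.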
# Lolium rigidum (LOLRI) [3] = assay: Pre-emergence herbicidal action against LOLRI; details: dosage 320 g/ha
# Method in brief: as §1
# [4] = tested on: Alopecurus myosuroides (ALOMY); assay: Pre-emergence herbicidal action against ALOMY; details: 320 g/ha; scored visually after about 3 weeks; 100% = plants have died
# Method in brief: as §1
# [5] = tested on: Triticum aestivum (TRZAS); details: crop plant compatibility, effect vs untreated controls
# Method in brief: (§3)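 Percent effect on the crop was judged by eye against untreated controls, where 0% means like control and 100% means dead plants. Plants had been sprayed post-emergence at the one-leaf stage and then kept under optimum greenhouse conditions for about 3 weeks.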
# Zea mays (ZEAMX) [6] = details: for Post-emergence action against ZEAMX in %: crop plant compatibility, effect vs untreated controls
# Method in brief: as §3
# Oryza sativa (ORYSA) [7] = details: crop plant compatibility
# Method in brief: as §3
# [8] = tested on: Triticum aestivum (TRZAS); details: pre-emergence, crop plant compatibility, in comparison to untreated controls
# Method in brief: (§4)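 Scoring: visual, % of untreated control, about 3 weeks after a pre-emergence application to the soil surface. Application used WP or EC formulations diluted in water with 0.5% additive at 600 l/ha; dosage levels are marked by suffixes a, b and c.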
# Zea mays (ZEAMX) [9] = details: pre-emergence, crop plant compatibility, in comparison to untreated controls
# Method in brief: as §4
# Glycine max (GLXMA) = details: pre-emergence, 80 g/ha, crop plant compatibility, in comparison to untreated controls
# Method in brief: as §4
# Brassica napus (BRSNW) = details: 80 g/ha, crop plant compatibility, in comparison to untreated controls
# Method in brief: as §4
# Oryza sativa (ORYSA) [10] = details: pre-emergence, crop plant compatibility, in comparison to untreated controls
# Method in brief: as §4
# [11] = tested on: Alopecurus myosuroides (ALOMY); assay: Post-emergence herbicidal action against ALOMY; details: visual rating about 3 weeks after treatment vs untreated controls (100% = plants have died, 0% = like control plants)
# Method in brief: as §2
# [12] = tested on: Polygonum convolvulus (POLCO); assay: Post-emergence herbicidal action against POLCO
# Method in brief: as §2
# Lolium rigidum (LOLRI) [13] = assay: Post-emergence herbicidal action against LOLRI; details: dosage 320 g/ha
# Method in brief: as §2
# [14] = tested on: Verconica persica (VERPE); assay: Post-emergence herbicidal action against VERPE; details: 320 g/ha, VERPE
# Method in brief: as §2
# [15] = tested on: Abutilon theophrasti (ABUTH); assay: Post-emergence herbicidal action against ABUTH; details: 320 g/ha, visual rating about 3 weeks after treatment vs untreated controls (100% = plants have died, 0% = like control plants)
# Method in brief: as §2
# [16] = tested on: Matricaria inodora (MATIN); assay: Pre-emergence herbicidal action against MATIN; details: dosage 320 g/ha
# Method in brief: as §1
# [17] = tested on: Echinochloa crus-galli (ECHCG); assay: Post-emergence herbicidal action against ECHCG; details: dosage 320 g/ha
# Method in brief: as §2
# Setaria viridis (SETVI) [18] = assay: Post-emergence herbicidal action against SETVI; details: dosage 320 g/ha
# Method in brief: as §2
# [19] = tested on: Amaranthus retroflexus (AMARE); assay: Pre-emergence herbicidal action against AMARE; details: 320 g/ha, visual scoring after about 3 weeks vs untreated controls
# Method in brief: as §1
# [20] = tested on: Pharbitis purpurea (PHBPU); assay: Post-emergence herbicidal action against PHBPU
# Method in brief: as §2
# [21] = tested on: Digitaria sanguinalis (DIGSA); assay: Pre-emergence herbicidal action against DIGSA; details: dosage 320 g/ha
# Method in brief: as §1
# [22] = 80 g/ha, effect in comparison to untreated controls
SMILES,Pre-emergence action against SETVI in % (Setaria viridis (SETVI) [1]),Post-emergence action against ZEAMX in % (Zea mays (ZEAMX) [6]; 80 g/ha),Post-emergence action against ORYSA in % (Oryza sativa (ORYSA) [7]; [22]),Pre-emergence action against TRZAS in % ([8]; 80 g/ha),Pre-emergence action against ZEAMX in % (Zea mays (ZEAMX) [9]; 80 g/ha),Pre-emergence action against GLXMA in % (Glycine max (GLXMA)),Pre-emergence action against BRSNW in % (Brassica napus (BRSNW)),Pre-emergence action against ORYSA in % (Oryza sativa (ORYSA) [10]; 80 g/ha),Post-emergence action against VERPE in % [14],Post-emergence action against TRZAS in % ([5]; 80 g/ha),other results
COC(=O)CCOC(=O)COc1nn(-c2ccccn2)c(-c2cncc(F)c2)c1C1CC1 [Example I-71],100%,10%,20%,10%,10%,20%,0%,10%,–,–,"Post-emergence action against AMARE in % ([2]; 80 g/ha, visual rating about 3 weeks after treatment vs untreated controls (100% = plants have died, 0% = like control plants)): 90%; Pre-emergence action against LOLRI in % (Lolium rigidum (LOLRI) [3]): 90%; Pre-emergence action against ALOMY [4]: 90%; Post-emergence action against TRZAS in % ([5]; 20 g/ha): 10%; Post-emergence action against ZEAMX in % (crop plant compatibility) (Zea mays (ZEAMX) [6]; 20 g/ha, ZEAMX, effect in comparison to untreated controls): 0%; Post-emergence action against ORYSA in % (Oryza sativa (ORYSA) [7]; 20 g/ha, effect vs untreated controls): 10%; Post-emergence action against ALOMY in % ([11]; 80 g/ha): 90%"
CCOC(=O)COc1nn(-c2cccc(C)n2)c(-c2ccc(F)nc2)c1Br [Example I-312],90%,10%,10%,10%,20%,20%,20%,20%,80%,20%,Post-emergence action against POLCO in % ([12]; dosage 80 g/ha): 80%; Post-emergence action against POLCO in % ([12]; dosage 320 g/ha): 80%; Post-emergence action against LOLRI in % (Lolium rigidum (LOLRI) [13]): 90%; Post-emergence action against ABUTH in % [15]: 80%; Pre-emergence action against MATIN in % [16]: 90%; Post-emergence action against ECHCG in % [17]: 90%; Post-emergence action against SETVI in % (Setaria viridis (SETVI) [18]): 80%; Pre-emergence action against AMARE in % [19]: 90%; Pre-emergence action against TRZAS in % ([8]; 320 g/ha): 20%; Post-emergence action against PHBPU in % ([20]; dosage 80 g/ha): 80%; Post-emergence action against PHBPU in % ([20]; dosage 320 g/ha): 90%; Post-emergence action against ALOMY in % ([11]; 320 g/ha): 90%
COC(=O)C=CC(C)NC(=O)COc1nn(-c2ccccn2)c(-c2ccc(F)nc2)c1Br (stereo not drawn) [Example I-345],–,0%,20%,10%,0%,0%,20%,10%,80%,10%,"Post-emergence action against AMARE in % ([2]; 320 g/ha, visual rating about 3 weeks after treatment): 80%; Pre-emergence action against DIGSA in % [21]: 90%; Post-emergence action against ZEAMX in % (Zea mays (ZEAMX) [6]; 320 g/ha): 10%; Pre-emergence action against ZEAMX in % (Zea mays (ZEAMX) [9]; 320 g/ha): 10%; Pre-emergence action against ORYSA in % (Oryza sativa (ORYSA) [10]; 320 g/ha): 20%"
